Source: ChEMBL document CHEMBL1949543, “Synthesis and evaluation of novel monosubstituted sulfonylurea derivatives as antituberculosis agents” (Eur J Med Chem, 2012)
Converted amounts (≈) assume the structure as drawn.

Columns and labels:
[1] = system: Mycobacterium tuberculosis; assay: Antituberculosis activity against Mycobacterium tuberculosis H37Rv ATCC 27294; format: functional
[2] = Selectivity ratio of IC50 for human THP1 cells to MIC for Mycobacterium tuberculosis H37Rv ATCC 27294; format: functional, THP-1
[3] = system: Mycobacterium tuberculosis; assay: Antituberculosis activity against Mycobacterium tuberculosis isolate A; format: functional
[4] = system: Mycobacterium avium; assay: Antituberculosis activity against Mycobacterium avium ATCC 25291; format: functional, Mycobacterium avium subsp. avium ATCC 25291
[5] = system: Mycobacterium kansasii; assay: Antituberculosis activity against Mycobacterium kansasii ATCC 12478; format: functional
[6] = system: THP-1; assay: Cytotoxicity against human THP1 cells after 72 hrs by MTT assay; format: cell-based; conditions: THP-1, 72 h
[7] = Selectivity ratio of IC50 for human THP1 cells to MIC for Mycobacterium tuberculosis isolate A; format: functional, THP-1

SMILES | MIC [1] | also measured
CC(=O)Nc1ccc(Cl)c(S(=O)(=O)NC(=O)Nc2nccc(C)n2)c1 | > 100 µg/mL | –
Cc1ccnc(NC(=O)NS(=O)(=O)c2cc(NC(=O)CCl)ccc2Cl)n1 | 10 µg/mL (≈ 23.9 µM) | Selectivity ratio [2]: 10; MIC [3]: 10 µg/mL (≈ 23.9 µM); MIC [4]: > 100 µg/mL; MIC [5]: 20 µg/mL (≈ 47.8 µM); IC50 [6]: 138 µg/mL (≈ 330 µM); Selectivity ratio [7]: 10
Cc1ccnc(NC(=O)NS(=O)(=O)c2cc(NC(=O)C(C)C)ccc2Cl)n1 | > 100 µg/mL | –
Cc1ccnc(NC(=O)NS(=O)(=O)c2cc(NC(=O)C3CC3)ccc2Cl)n1 | > 100 µg/mL | –
Cc1ccnc(NC(=O)NS(=O)(=O)c2cc(NC(=O)C(C)(C)C)ccc2Cl)n1 | > 100 µg/mL | –
C=CC(=O)Nc1ccc(Cl)c(S(=O)(=O)NC(=O)Nc2nccc(C)n2)c1 | 20 µg/mL (≈ 50.5 µM) | –
Cc1ccnc(NC(=O)NS(=O)(=O)c2cc(NC(=O)C(C)Cl)ccc2Cl)n1 (stereo not drawn) | > 100 µg/mL | –
CC(=O)OCC(=O)Nc1ccc(Cl)c(S(=O)(=O)NC(=O)Nc2nccc(C)n2)c1 | > 100 µg/mL | –
CCOC(=O)C(=O)Nc1ccc(Cl)c(S(=O)(=O)NC(=O)Nc2nccc(C)n2)c1 | > 100 µg/mL | –
Cc1ccnc(NC(=O)NS(=O)(=O)c2cc(NC(=O)C(F)(F)C(F)(F)C(F)(F)F)ccc2Cl)n1 | > 100 µg/mL | –
Cc1ccnc(NC(=O)NS(=O)(=O)c2cc(NC(=O)c3ccccc3)ccc2Cl)n1 | 100 µg/mL (≈ 224 µM) | –
Cc1ccnc(NC(=O)NS(=O)(=O)c2cc(NC(=O)C(F)(F)F)ccc2Cl)n1 | > 100 µg/mL | –
Cc1ccnc(NC(=O)NS(=O)(=O)c2cc(NC=O)ccc2Cl)n1 | > 100 µg/mL | –
COc1ccnc(NC(=O)NS(=O)(=O)c2cc(NC(C)=O)ccc2Cl)n1 | > 100 µg/mL | –
COc1ccnc(NC(=O)NS(=O)(=O)c2cc(NC(=O)CCl)ccc2Cl)n1 | 10 µg/mL (≈ 23 µM) | Selectivity ratio [2]: 10; MIC [3]: 10 µg/mL (≈ 23 µM); MIC [4]: > 100 µg/mL; MIC [5]: 20 µg/mL (≈ 46.1 µM); IC50 [6]: 180 µg/mL (≈ 414 µM); Selectivity ratio [7]: 10
COc1ccnc(NC(=O)NS(=O)(=O)c2cc(NC(=O)C(C)C)ccc2Cl)n1 | > 100 µg/mL | –
COc1ccnc(NC(=O)NS(=O)(=O)c2cc(NC(=O)C3CC3)ccc2Cl)n1 | > 100 µg/mL | –
COc1ccnc(NC(=O)NS(=O)(=O)c2cc(NC(=O)C(C)(C)C)ccc2Cl)n1 | > 100 µg/mL | –
C=CC(=O)Nc1ccc(Cl)c(S(=O)(=O)NC(=O)Nc2nccc(OC)n2)c1 | 40 µg/mL (≈ 97.1 µM) | –
COc1ccnc(NC(=O)NS(=O)(=O)c2cc(NC(=O)C(C)Cl)ccc2Cl)n1 (stereo not drawn) | > 100 µg/mL | –
COc1ccnc(NC(=O)NS(=O)(=O)c2cc(NC(=O)COC(C)=O)ccc2Cl)n1 | > 100 µg/mL | –
CCOC(=O)C(=O)Nc1ccc(Cl)c(S(=O)(=O)NC(=O)Nc2nccc(OC)n2)c1 | > 100 µg/mL | –
COc1ccnc(NC(=O)NS(=O)(=O)c2cc(NC(=O)C(F)(F)C(F)(F)C(F)(F)F)ccc2Cl)n1 | > 100 µg/mL | –
COc1ccnc(NC(=O)NS(=O)(=O)c2cc(NC(=O)C(F)(F)F)ccc2Cl)n1 | > 100 µg/mL | –
COc1ccnc(NC(=O)NS(=O)(=O)c2cc(NC=O)ccc2Cl)n1 | > 100 µg/mL | –
COC(=O)c1ccccc1S(=O)(=O)NC(=O)Nc1nc(C)cc(C)n1 [SULFOMETURON METHYL] | 10 µg/mL (≈ 27.4 µM) | –
